Assay results published in US20100041892A1, “Therapeutic agent for diabetes” (priority 2005, published 2010).
Counter-ions that a name gives are not always drawn.

SMILES | melting point [°C]
COCCOc1ccc(/C=C/C(=O)NS(=O)(=O)c2cccc(C)c2)c(Oc2ncc(C(F)(F)F)cc2Cl)c1 [Example 241, (2E)-3-[2-{[3-chloro-5-(trifluoromethyl)pyridin-2-yl]oxy}-4-(2-methoxyethoxy)phenyl]-N-[(3-methylphenyl)sulfonyl]acrylamide] | 147 to 147.5
COCCCS(=O)(=O)NC(=O)/C=C/c1cc(OC(C)C)nn1Cc1ccc(C(F)(F)F)cc1Cl [Example 115, (2E)-3-{1-[2-chloro-4-(trifluoromethyl)benzyl]-3-isopropoxy-1H-pyrazol-5-yl}-N-[(3-methoxypropyl)sulfonyl]acrylamide] | 138 to 139
CCCCCC(=O)NS(=O)(=O)CCc1cc(OCCCC)nn1Cc1ccc(Cl)cc1Cl [Example 128, N-({2-[3-butoxy-1-(2,4-dichlorobenzyl)-1H-pyrazol-5-yl]ethyl}sulfonyl)hexanamide] | 90 to 92
COCCCNC(=O)OCCCc1ccc(OCCOC)cc1Oc1ncc(C(F)(F)F)cc1Cl [Example 55, 3-[2-{[3-chloro-5-(trifluoromethyl)pyridin-2-yl]oxy}-4-(2-methoxyethoxy)phenyl]propyl (3-methoxypropyl)carbamate] | 83.5 to 85
COCCOc1ccc(CCCNS(C)(=O)=O)c(Oc2ncc(C(F)(F)F)cc2Cl)c1 [Example 15, N-{3-[2-{[3-chloro-5-(trifluoromethyl)pyridin-2-yl]oxy}-4-(2-methoxyethoxy)phenyl]propyl}methanesulfonamide] | 89 to 90
CCCCCS(=O)(=O)NC(=O)/C=C/c1ccc(OCCOC)cc1OCC1CCCCC1 [Example 158, (2E)-3-[2-(cyclohexylmethoxy)-4-(2-methoxyethoxy)phenyl]-N-(pentylsulfonyl)acrylamide] | 97.5 to 98.3
COCCCNS(=O)(=O)NC(=O)/C(C)=C/c1ccc(OC(C)C)cc1Oc1ncc(C(F)(F)F)cc1Cl [Example 221, (2E)-3-(2-{[3-chloro-5-(trifluoromethyl)pyridin-2-yl]oxy}-4-isopropoxyphenyl)-N-{[(3-methoxypropyl)amino]sulfonyl}-2-methylacrylamide] | 120 to 121
CCN(CC)C(=O)COc1ccc(CCCOC(=O)NCC2CC2)c(Oc2ncc(C(F)(F)F)cc2Cl)c1 [Example 52, 3-{2-{[3-chloro-5-(trifluoromethyl)pyridin-2-yl]oxy}-4-[2-(diethylamino)-2-oxoethoxy]phenyl}propyl (cyclopropylmethyl)carbamate] | 94 to 94.5
COCCOc1ccc(CCCOC(=O)NS(=O)(=O)NCCC(C)C)c(Oc2ncc(C(F)(F)F)cc2Cl)c1 [Example 203, 3-[2-{[3-chloro-5-(trifluoromethyl)pyridin-2-yl]oxy}-4-(2-methoxyethoxy)phenyl]propyl {[(3-methylbutyl)amino]sulfonyl}carbamate] | 123 to 123.5
C/C(=C\c1ccc(OC(C)C)cc1Oc1ncc(C(F)(F)F)cc1Cl)C(=O)NS(=O)(=O)NCC1CCCO1 (centres unmarked) [Example 231, (2E)-3-(2-{[3-chloro-5-(trifluoromethyl)pyridin-2-yl]oxy}-4-isopropoxyphenyl)-2-methyl-N-{[(tetrahydrofuran-2-ylmethyl)amino]sulfonyl}acrylamide] | 125.3 to 126.5
COCCCNS(=O)(=O)NC(=O)/C(C)=C/c1ccc(OCCOC)cc1Oc1ncc(C(F)(F)F)cc1Cl [Example 227, (2E)-3-[2-{[3-chloro-5-(trifluoromethyl)pyridin-2-yl]oxy}-4-(2-methoxyethoxy)phenyl]-N-{[(3-methoxypropyl)amino]sulfonyl}-2-methylacrylamide] | 121 to 122
CC(C)Oc1cc(CCC(=O)NS(=O)(=O)C2CCCCC2)n(Cc2ccc(Cl)cc2Cl)n1 [Example 90, N-(cyclohexylsulfonyl)-3-[1-(2,4-dichlorobenzyl)-3-isopropoxy-1H-pyrazol-5-yl]propanamide] | 137 to 138
COCCOc1ccc(CCC(=O)N(CCOC)S(N)(=O)=O)c(Oc2ncc(C(F)(F)F)cc2Cl)c1 [Example 213, N-(aminosulfonyl)-3-[2-{[3-chloro-5-(trifluoromethyl)pyridin-2-yl]oxy}-4-(2-methoxyethoxy)phenyl]-N-(2-methoxyethyl)propanamide] | 101 to 101.1
COCCOc1ccc(CCC(=O)NS(=O)(=O)c2ccc(OC)cc2)c(Oc2ncc(C(F)(F)F)cc2Cl)c1 [Example 7, 3-[2-{[3-chloro-5-(trifluoromethyl)pyridin-2-yl]oxy}-4-(2-methoxyethoxy)phenyl]-N-[(4-methoxyphenyl)sulfonyl]propanamide] | 118 to 120
CCCCCCS(=O)(=O)NC(=O)CCc1cc(OC(C)C)nn1Cc1ccc(Cl)cc1Cl [Example 87, 3-[1-(2,4-dichlorobenzyl)-3-isopropoxy-1H-pyrazol-5-yl]-N-(hexylsulfonyl)propanamide] | 103 to 106
CCCCCS(=O)(=O)NC(=O)/C=C/c1ccc(OCCO[Si](C(C)C)(C(C)C)C(C)C)cc1Oc1ncc(C(F)(F)F)cc1Cl | 106 to 108

SMILES | melting point [°C]
CCCCCS(=O)(=O)NC(=O)CCc1cc(OCCCC)nn1Cc1ccc(C(F)(F)F)cc1Cl [Example 107, 3-{3-butoxy-1-[2-chloro-4-(trifluoromethyl)benzyl]-1H-pyrazol-5-yl}-N-(pentylsulfonyl)propanamide] | 131 to 133
C/C(=C\c1ccc(OC(C)C)cc1Oc1ncc(C(F)(F)F)cc1Cl)C(=O)NS(=O)(=O)NCCc1ccccn1 [Example 471, (2E)-3-(2-{[3-chloro-5-(trifluoromethyl)pyridin-2-yl]oxy}-4-isopropoxyphenyl)-2-methyl-N-{[(2-pyridin-2-ylethyl)amino]sulfonyl}acrylamide] | 121 to 123
CCCCCS(=O)(=O)NC(=O)/C=C/c1ccc(OCCOC)cc1OCC1CC1 [Example 160, (2E)-3-[2-(cyclopropylmethoxy)-4-(2-methoxyethoxy)phenyl]-N-(pentylsulfonyl)acrylamide] | 64.8 to 66.3
COCCOc1ccc(CCC(=O)NS(=O)(=O)CCC(C)C)c(Oc2ncc(C(F)(F)F)cc2Cl)c1 [Example 43, 3-[2-{[3-chloro-5-(trifluoromethyl)pyridin-2-yl]oxy}-4-(2-methoxyethoxy)phenyl]-N-[(3-methylbutyl)sulfonyl]propanamide] | 130 to 132
COCCOc1ccc(/C=C(\C)C(=O)NS(=O)(=O)C(F)(F)F)c(Oc2ncc(C(F)(F)F)cc2Cl)c1 [Example 245, (2E)-3-[2-{[3-chloro-5-(trifluoromethyl)pyridin-2-yl]oxy}-4-(2-methoxyethoxy)phenyl]-2-methyl-N-[(trifluoromethyl)sulfonyl]acrylamide] | 146 to 147
COCCCS(=O)(=O)NC(=O)CCc1cc(C(C)(C)C)nn1Cc1ccc(C(F)(F)F)cc1Cl [Example 123, 3-{3-tert-butyl-1-[2-chloro-4-(trifluoromethyl)benzyl]-1H-pyrazol-5-yl}-N-[(3-methoxypropyl)sulfonyl]propanamide] | 149 to 150
CCCCCS(=O)(=O)NC(=O)OCc1cc(OC(C)C)nn1Cc1ccc(Cl)cc1Cl [Example 142, [1-(2,4-dichlorobenzyl)-3-isopropoxy-1H-pyrazol-5-yl]methyl (pentylsulfonyl)carbamate] | 126 to 128
COCCOc1ccc(/C=C/C(=O)NS(=O)(=O)c2cccnc2)c(Oc2ncc(C(F)(F)F)cc2Cl)c1 [Example 240, (2E)-3-[2-{[3-chloro-5-(trifluoromethyl)pyridin-2-yl]oxy}-4-(2-methoxyethoxy)phenyl]-N-(pyridin-3-ylsulfonyl)acrylamide] | 165 to 167
CCCCCS(=O)(=O)NC(=O)CCCc1cc(OCCCC)nn1Cc1ccc(Cl)cc1Cl [Example 146, 4-[3-butoxy-1-(2,4-dichlorobenzyl)-1H-pyrazol-5-yl]-N-(pentylsulfonyl)butanamide] | 121 to 122
C/C(=C\c1ccc(OC(C)C)cc1Oc1ncc(C(F)(F)F)cc1Cl)C(=O)NS(=O)(=O)NCCOC(C)C [Example 222, (2E)-3-(2-{[3-chloro-5-(trifluoromethyl)pyridin-2-yl]oxy}-4-isopropoxyphenyl)-N-{[(2-isopropoxyethyl)amino]sulfonyl}-2-methylacrylamide] | 137.5 to 137.7
CCCCCS(=O)(=O)NC(=O)/C=C/c1ccc(OCC(C)(C)O)cc1Oc1ncc(C(F)(F)F)cc1Cl (as salt: acetate) (hydrate or solvate) [Example 250, (2E)-3-[2-{[3-chloro-5-(trifluoromethyl)pyridin-2-yl]oxy}-4-(2-hydroxy-2-methylpropoxy)phenyl]-N-(pentylsulfonyl)acrylamide] | 98 to 100
CCCCCS(=O)(=O)NC(=O)/C=C/c1cc(OC2CCOCC2)nn1Cc1ccc(C(F)(F)F)cc1Cl [Example 154, (2E)-3-[1-[2-chloro-4-(trifluoromethyl)benzyl]-3-(tetrahydro-2H-pyran-4-yloxy)-1H-pyrazol-5-yl]-N-(pentylsulfonyl)acrylamide] | 160.5 to 161
CCCCCS(=O)(=O)NC(=O)/C=C/c1cc(OCCCC)nn1Cc1ccc(C(F)(F)F)cc1Cl [Example 106, (2E)-3-{3-butoxy-1-[2-chloro-4-(trifluoromethyl)benzyl]-1H-pyrazol-5-yl}-N-(pentylsulfonyl)acrylamide] | 130 to 132
COCCOc1ccc(/C=C/C(=O)NS(=O)(=O)c2ccc(F)cc2)c(Oc2ncc(C(F)(F)F)cc2Cl)c1 [Example 237, (2E)-3-[2-{[3-chloro-5-(trifluoromethyl)pyridin-2-yl]oxy}-4-(2-methoxyethoxy)phenyl]-N-[(4-fluorophenyl)sulfonyl]acrylamide] | 183 to 184
COCCCS(=O)(=O)NC(=O)/C=C/c1ccc(OC(C)C)cc1Oc1ncc(C(F)(F)F)cc1Cl [Example 57, (2E)-3-[2-{[3-chloro-5-(trifluoromethyl)pyridin-2-yl]oxy}-4-isopropoxyphenyl]-N-[(3-methoxypropyl)sulfonyl]acrylamide] | 129.5 to 130
CCCCCS(=O)(=O)NC(=O)CCc1ccc(OCCOC)cc1OC1CCCCC1 [Example 164, 3-[2-(cyclohexyloxy)-4-(2-methoxyethoxy)phenyl]-N-(pentylsulfonyl)propanamide] | 64.1 to 65.4
